The results in this text go back to patent US10738097B2, “Interferon-beta analog peptide” (priority 2017, dated 2020).

What all share (assay type): in vivo, mouse
In experiment [1] the test system is EAE-induced C57BL/6 mice. Kind of experiment: Clinical score in MOG-induced experimental autoimmune encephalomyelitis (EAE). The settings on record: IFNβ analog peptide = SEQ ID No. 1. Here is the method:
In this example, therapeutic effects of the IFNβ analog peptide with SEQ ID No. 1 on the development of progressive experimental autoimmune encephalomyelitis (EAE) were studied. At first, EAE was induced in 8 weeks old C57BL/6 male mice with a weight between 20 grams and 25 grams. In order to induce EAE, mice were anesthetized with isoflurane and subcutaneously injected with 100 μl of MOG (myelin oligodendrocyte glycoprotein) with a concentration of about 2.5 g/l suspended in 100 μl complete Freund's adjuvant (CFA) into the hind flank. Mice were also intraperitoneally injected with 400 ng of pertussis toxin in 200 μl of phosphate buffered saline (PBS). A second, identical injection of pertussis toxin was given two days following the first immunization. Injections were distributed over four spots, for example about 100 μl per site across the flank areas. […]
After that, in order to conduct clinical evaluation, mice of the experimental groups were blinded scored as follows: score 0 for no overt signs of disease, score 1 for limp tail, score 2 for limp tail and hind limb weakness, score 3 for partial hind limb paralysis of one side (hemiparesis) or both sides (paraparesis), score 4 for complete hind limb paralysis of one side (hemiplegia) or both sides (paraplegia), score 5 for moribund state. The day of immunization was considered as EAE day 0 and clinical behavior of mice was scored daily. […]

For experiment [2], the system named is matrix metalloproteinase 2 (MMP2). Kind of experiment: MMP2 gene expression in brain tissue of EAE mice, quantitative real-time PCR. The settings on record: 20 mg/kg. Here is the method:
(§1) In this example, effects of the IFNβ analog peptide as the IFNβ analog peptide on the expression of some related inflammations mediators such as matrix metalloproteinase 2 (MMP2) and matrix metalloproteinase 9 (MMP9) were studied using quantitative real-time polymerase chain reaction (PCR).
(§2) The EAE mice were treated with PBS as the vehicle group, and dosage of the IFNβ analog peptide and IFNβ was 20 mg/kg in IFNβ analog peptide-treated mice and IFNβ-treated mice groups. After that RNA of the cells was extracted and their cDNA was synthesized.
In general terms: In qPCR the cycle at which signal appears reflects the starting amount.

For experiment [3], the system named is matrix metalloproteinase 9 (MMP9). The experiment is described as follows: MMP9 gene expression in brain tissue of EAE mice, quantitative real-time PCR. The following applies: 20 mg/kg. On the procedure:
as §1, §2

Experiment [4] has as its system tumor necrosis factor-alpha (TNFα). The experiment is described as follows: Plasma TNFα of EAE mice, ELISA. The settings on record: 21 days after EAE induction. On the procedure:
(§3) Moreover, after 21 days of EAE induction, mice were euthanized and their blood was obtained via cardiac puncture and plasma was prepared. Expression levels of tumor necrosis factor-alpha (TNFα) and interleukin 1β (IL1β) as circulating inflammatory biomarkers were measured in the plasma using quantitative enzyme-linked immunosorbent assay (ELISA) kits.
(An ELISA detects its analyte on a solid surface through an enzyme-linked reagent.)

In experiment [5] the test system is interleukin 1β (IL1β). Kind of experiment: Plasma IL1β of EAE mice, ELISA. The following applies: 21 days after EAE induction. Here is the method: as §3
Experiment [6] deals with IL-17 positive cells. The experiment is described as follows: IL-17 positive cells in cerebral cortex of EAE mice. The settings on record: 10 and 20 mg/kg, particularly 20 mg/kg, day 21. Here is the method: (§4) Furthermore, brain inflammatory response after IFNβ analog peptide treatment as the IFNβ analog peptide was evaluated by measuring the number of IL-17 positive cells, CD11b positive cells, and CD45 positive cells. IL-17 is the most important pro-inflammatory cytokine produced by T-helper cells, CD11b is an activated macrophages and microglia marker, and CD45 is a general leukocytes marker.
(§5) After 21 days of EAE induction, mice were euthanized and were transcardially perfused with PBS. Then, the brains were dissected; cerebral cortex was isolated and snap-frozen in liquid nitrogen.

Experiment [7] has as its system CD11b positive cells. The experiment is described as follows: CD11b positive cells in cerebral cortex of EAE mice. The settings on record: 10 and 20 mg/kg, particularly 20 mg/kg, day 21. Here is the method: as §4, §5
Experiment [8] deals with CD45 positive cells. The experiment is described as follows: CD45 positive cells in cerebral cortex of EAE mice. The following applies: 10 and 20 mg/kg, particularly 20 mg/kg, day 21. On the procedure:
as §4, §5

[9] abbreviates: P<0.05, SEQ ID of peptide not stated in Example 6.

Regarding “IFNβ: Interferon-beta, first-line treatment for relapsing-remitting multiple sclerosis; comparator”, the “Effect of raising the dose on EAE clinical symptoms” value in experiment [1] (20 mg/kg versus 10 mg/kg) is recorded as “improved disease protection”. The “Mean clinical score (AUC) versus vehicle group and EAE group” value in experiment [1] (10 and 20 mg/kg injected on day 14 of EAE induction) is listed as “significant reduction in the clinical score”. Besides, the “Reduction of MMP2, IFNβ versus IFNβ analog peptide” value in experiment [2] was “reduction of these inflammation mediators was more in IFNβ-treated mice”. Further, the “MMP2 gene expression fold change in the brain tissue compared to the vehicle group” value in experiment [2] (setting [9]) is given as “significant decrease”. For the same substance, the “Reduction of MMP9, IFNβ versus IFNβ analog peptide” value in experiment [3] is given as “reduction of these inflammation mediators was more in IFNβ-treated mice”. The “MMP9 gene expression fold change in the brain tissue compared to the vehicle group” value in experiment [3] (setting [9]) is recorded as “significant decrease”. In experiment [4], the “Reduction of TNFα, IFNβ versus IFNβ analog peptide” value was “reduction of these inflammation mediators was more in IFNβ-treated mice”. Moreover, in experiment [4] (P-value<0.05), the “Plasma level of TNFα compared to the vehicle group” value is recorded as “significant decrease”. Further, the “Reduction of IL1β, IFNβ versus IFNβ analog peptide” value in experiment [5] is “reduction of these inflammation mediators was more in IFNβ-treated mice”. The “Plasma level of IL1β compared to the vehicle group” value in experiment [5] (P-value<0.05) is given as “significant decrease”. Also, in experiment [6], the “Percentage of IL-17 positive cells in the cerebral cortex” value is recorded as “considerably decreased”. Besides, the “Percentage of CD11b positive cells in the cerebral cortex” value in experiment [7] is given as “considerably decreased”. Also, the “Percentage of CD45 positive cells in the cerebral cortex” value in experiment [8] was “considerably decreased”.
